The source of these data is patent US20230114241A1, “METHODS OF TREATING EPILEPSY USING THE SAME” (Trevena, Inc., priority 2019, published 2023).

The structures appear in SMILES notation.

Chain of human sphingosine-1-phosphate receptor 1 (S1P1) (P21453 whole entry): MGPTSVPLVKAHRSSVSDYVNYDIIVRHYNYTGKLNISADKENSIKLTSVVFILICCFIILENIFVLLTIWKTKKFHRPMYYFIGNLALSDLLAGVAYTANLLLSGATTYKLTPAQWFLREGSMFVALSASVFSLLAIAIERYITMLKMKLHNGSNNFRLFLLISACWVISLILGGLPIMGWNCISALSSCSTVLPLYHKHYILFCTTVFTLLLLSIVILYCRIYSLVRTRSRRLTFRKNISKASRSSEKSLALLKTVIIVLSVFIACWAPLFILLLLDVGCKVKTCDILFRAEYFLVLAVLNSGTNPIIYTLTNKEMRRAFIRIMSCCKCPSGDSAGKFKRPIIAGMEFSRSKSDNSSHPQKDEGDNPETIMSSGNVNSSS

The first assay has as its target human sphingosine-1-phosphate receptor 1 (S1P1) (Homo sapiens, UniProt P21453). Put plainly: Inhibition of cAMP production (HTRF cAMP HiRange), S1P1 CHO-K1 cells. The settings on record: inhibition of cAMP production, S1P1; read-out: hS1P1 CAMP pEC50 (converted). It counts as cell-based. Put shortly: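 CHO-K1 cells co-expressing human S1P1 (C-terminal ProLink tag) and EA-β-arrestin2, plated overnight; after 30 min compound incubation at 37 °C, intracellular cAMP measured by HTRF TR-FRET following 1 h at room temperature. Values normalized to fingolimod.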
For orientation: Changes in cAMP serve as a functional read-out for many G protein-coupled receptors.
In the case of `COc1cccc2oc(-c3ccc4c(c3)nnn4CC(C)C)nc12` [Compound 450, 2-(1-isobutyl-1H-benzo[d][1,2,3]triazol-5-yl)-4-methoxy-benzo[d]oxazole], the EC50 is under 316 nM.
Still for that read-out and setting: next, `CCC1(CC)CC(=O)c2cc(-c3nc(-c4ccc(NC(C)=O)cc4OC(F)(F)F)no3)ccc2O1` [Compound 584, N-{4-[5-(2,2-diethyl-4-oxo-3,4-dihydro-2H-1-benzopyran-6-yl)-1,2,4-oxadiazol-3-yl]-3-(trifluoromethoxy)phenyl}acetamide]: under 316 nM.

Still in this assay, the particulars now being: inhibition of cAMP production; potency; read-out: hS1P1 CAMP pEC50 (converted).
With `COc1cncc(-c2nc(-c3ccc4c(c3)nnn4C(C)C)no2)c1` [Compound 272, 3-(1-isopropyl-1H-benzo[d][1,2,3]triazol-5-yl)-5-(5-methoxy-pyridin-3-yl)-1,2,4-oxadiazole], the EC50 was over 316 nM.
For the molecule `Cc1cc(C)cc(-c2noc(-c3ccc4c(c3)nnn4C(C)C)n2)c1` [Compound 204, 5-[3-(3,5-dimethy-lphenyl)-1,2,4-oxadiazol-5-yl]-1-(propan-2-yl)-1H-1,2,3-benzotriazole], the EC50 was over 316 nM.
As to `Cc1ccc(-c2noc(-c3ccc4c(c3)nnn4C3CCCCC3)n2)cc1` [Compound 117, 1-cyclohexyl-5-[3-(4-methylphenyl)-1,2,4-oxadiazol-5-yl]-1H-1,2,3-benzotriazole], the EC50 is over 316 nM.
As for `CC(C)n1nnc2cc(-c3nc(-c4ccc(Cl)s4)no3)ccc21` [Compound 170, 5-[3-(5-chlorothiophen-2-yl)-1,2,4-oxadiazol-5-yl]-1-(propan-2-yl)-1H-1,2,3-benzotriazole], the EC50 is over 316 nM.
On the same count and under the same terms, next, `Cc1ccncc1-c1noc(-c2ccc3c(c2)nnn3C(C)C)n1` [Compound 101, 5-[3-(4-methylpyridin-3-yl)-1,2,4-oxadiazol-5-yl]-1-(propan-2-yl)-1H-1,2,3-benzotriazole]: under 316 nM; `Brc1ccccc1-c1nc(-c2ccc3[nH]nnc3c2)no1` [Compound 97, 3-(1H-benzo[d][1,2,3]triazol-5-yl)-5-(2-bromophenyl)-1,2,4-oxadiazole]: over 316 nM; `COc1ccc(-c2coc(-c3ccc4c(c3)nnn4C(C)C)n2)cc1` [Compound 250, 5-[4-(4-methoxy-phenyl)-1,3-oxazol-2-yl]-1-(propan-2-yl)-1H-1,2,3-benzotriazole]: over 316 nM.
The same measure, in the same setting: the figure for `CCC1(CC)CC(=O)c2cc(-c3nc(-c4ccc(OC)cc4)no3)ccc2O1` [Compound 65, 2,2-diethyl-6-(3-(4-methoxyphenyl)-1,2,4-oxadiazol-5-yl)chroman-4-one] is over 316 nM; for `Cc1ccccc1-c1noc(-c2ccc3c(c2)nnn3C2CCCC2)n1` [Compound 175, 1-cyclopentyl-5-[3-(2-methylphenyl)-1,2,4-oxadiazol-5-yl]-1H-1,2,3-benzotriazole] it is under 316 nM.
For the molecule `CC(C)n1ccc2cc(-c3nc(-c4ccccc4Cl)no3)ccc21` [Compound 320, 3-(2-chlorophenyl)-5-(1-isopropyl-1H-indol-5-yl)-1,2,4-oxadiazole], the EC50 is under 316 nM.
As to `N#Cc1cc(-c2nnc(-c3ccc4[nH]cnc4c3)o2)ccc1NCCF` [Compound 358, 5-[5-(1H-1,3-benzo-diazol-5-yl)-1,3,4-oxadiazol-2-yl]-2-[(2-fluoroethyl)amino] benzonitrile], the EC50 was under 316 nM.
On to `CCC1(CC)CC(=O)c2cc(-c3nsc(-c4cccnc4)n3)ccc2O1` [Compound 137, 2,2-diethyl-6-(5-(pyridin-3-yl)-1,2,4-thiadiazol-3-yl)chroman-4-one], for which the EC50 is under 316 nM.
For `C=CCNc1ccc(-c2nc(-c3ccc4[nH]ccc4c3)no2)cc1C#N` [Compound 208, 5-(3-(1H-indol-5-yl)-1,2,4-oxadiazol-5-yl)-2-(allylamino) benzonitrile], the EC50 is under 316 nM.
In the case of `Brc1ccccc1-c1noc(-c2ccc3[nH]nnc3c2)n1` [Compound 190, 5-[3-(2-bromophenyl)-1,2,4-oxadiazol-5-yl]-1H-1,2,3-benzotriazole], the EC50 is over 316 nM.
